One data set deals with T1, human ATX (Homo sapiens, UniProt Q13822).
T1 construct: made in house
As to the kind of experiment: Autotaxin inhibition assay (Amplex-Red). It counts as biochemical. The following applies: ATX 3 nM, LPC 18:1 30 μM, read-out: hATX IC50. How it is done:
Plates were sealed and incubated for 5 min. The final assay concentrations were ATX 3 nM, choline oxidase 2 U/ml, horseradish peroxidase 4 U/ml, LPC 18:1 30 μM, Amplex Red 50 μM, and DMSO 2%.

Data set [1] can be described thus: In vitro microsomal stability, rat. It counts as in vitro ADME. The following applies: rat microsomes, 1 µM; value of 10 = low clearance, essentially below detection limit. The protocol:
(§1) Incubations of a test compound at a concentration of 1 µM with microsomes (0.5 mg/ml) from the appropriate species (human, mouse, or rat) plus cofactor NADPH were performed in 96-well plates at 37°C on a TECAN automated liquid handling system (Tecan Group Ltd., Männedorf, Switzerland). After pre-incubation of the test compound with the microsomes for 10 min, the enzymatic reaction was started by the addition of cofactors. Aliquots of the incubations are removed at 1, 3, 6, 9, 15, 25, 35, and 45 min and are then quenched with 1:3 (v/v) acetonitrile containing internal standards. Samples were then cooled and centrifuged before analysis of the supernatant by LC-MS/MS. Logarithmic Peak area ratios (test compound peak area/internal standard peak area) were plotted against incubation time and a linear fit made to the data with emphasis upon the initial rate of compound disappearance. The slope of the fit was then used to calculate the intrinsic clearance: Clint (µL/min/mg protein) = −slope (min-1) * 1,000/[protein concentration (mg/ml)].

The nature of another data set: HT-solubility assay. The data set is classed as physicochemical. The following applies: aqueous buffer, thermodynamic from solid; phosphate buffer pH 6.5. The protocol: This assay was performed on a TECAN station starting from 10 mM DMSO stock solutions of the test compounds. Two aliquots of the test compound were dried and dissolved in phosphate buffer at pH 6.5. Sonication supports optimal re-solubilization. The solutions were then filtered and diluted (3 different dilution levels for each compound) followed by quantification of the dissolved material with Rapid-Fire MS. Quantification was performed for each test compound with a 6-point calibration curve prepared with the same DMSO starting solution.

The nature of data set [2]: In vitro microsomal stability, human. It counts as in vitro ADME. The following applies: human microsomes, 1 µM; value of 10 = low clearance, essentially below detection limit. How it is done:
as §1

Data set [3] can be described thus: Lipophilicity (LogD, octanol/buffer). The following applies: 1-octanol / 25 mM phosphate buffer; pH 7.4, octanol/25 mM phosphate buffer. It counts as physicochemical. How it is done:
The experiment started with the accurate coating of the hydrophobic layer (0.45 µm PVDF membranes), which was fixed on the bottom of each DIFI©-tube (Weidmann Medical Technology AG, Rapperswil, Switzerland). The coated membranes were then connected to a 96-well plate which has been prefilled with exactly 150 µl of the selected aqueous buffer solution (25 mM phosphate buffer, pH 7.4). The buffer solution contains already the compound of interest with a maximum starting concentration of 85 µM. To expand the measurement range down to logD = −0.5 and up to logD = +4, it is necessary to carry out the procedure at two different octanol/water ratios: One with an excess of octanol for hydrophilic compounds (logD < 1) and one with a low volume of octanol for the lipophilic compounds (logD > 1). Therefore, parts of the DIFI©-tubes were filled with 15 µl 1-octanol and another part with 1 µl 1-octanol. The resulting sandwich guarantees that the membrane was completely dipped in the buffer solution. The plate was then sealed and shaken for 12 h at room temperature (23°C). During this time, the substance is distributed between the layer, the octanol, and the buffer solution. After having reached a distribution equilibrium, the DIFI©-tubes were easily disassembled from the top of the 96-well plate, so that the remaining sample concentration in the aqueous phase could be analyzed by LC/MS.

Data set [4] in a line: Glutathione addition screening. The following applies: human liver microsomes + NADPH + GSH. It counts as in vitro ADME. The protocol: All sample handling was performed based on a 96-well plate format using an automated pipetting system. The test compounds, positive controls (diclofenac, troglitazone, nefazodone, 4-[[1-(4-fluorophenyl)-2-methyl-1H-imidazol-4-yl]ethynyl]-2-methylpyridine) and solvent control (DMSO) were incubated with human liver microsomes supplemented with NADPH and reduced GSH. Stable GSH conjugates whose production can be assumed to be the result of chemically reactive metabolites were detected using a quadrupole time of flight mass spectrometer run in untargeted full scan accurate mass MSE mode (Waters Xevo G1 QTOFMSE; Waters GmbH, Eschborn, Germany). This generic GSH adduct detection method and the assay workflow are taking advantage of the specific fragmentation behavior of the peptide moiety upon collision induced dissociation of GSH adducts and so are largely independent of the conjugate (“X”) itself.
(Liver microsomes are a subcellular fraction often used to study metabolism.)

Data set [5] can be described thus: In vitro microsomal stability, mouse. It counts as in vitro ADME. The following applies: mouse microsomes, 1 µM; value of 10 = low clearance, essentially below detection limit. How it is done: as §1
Data set [6] can be described thus: Artificial membrane permeability assay. The data set is classed as in vitro ADME. The following applies: PAMPA, read-out: Permeability Pe. The protocol: The assay was performed in an automated fashion on 96-well microplates. The permeation of drugs was measured using a “sandwich” construction: A filter-plate was coated with phospholipids (membrane) and placed into a donor compartment containing a compound/buffer solution. Finally, the top of filter-plate was filled with buffer solution (acceptor). Donor concentration was measured at t-start (reference) and compared with the donor and acceptor concentration after a certain time (t-end) to calculate the extent of passage of the compound through the membrane. The main readout of the assay was the permeability value Pe expressed in 10^–6 * cm/s. Secondary readouts determined were the amount of compound in the donor and acceptor compartments as well as the retention in the membrane. Depending on the permeation rate and the membrane retention the compounds were classified as low (Pe < 0.2 and membrane < 20%) or medium and high (Pe ≥ 0.2 or Pe < 0.2 and membrane ≥ 20%). Each sample was measured in triplicate and a standard deviation was determined for the permeation constant Pe.
On the technique in general: The PAMPA barrier holds no transporters, so it reflects passive diffusion.

The nature of a further data set: Single dose PK in rats. It counts as in vivo. The following applies: rat; for AUC(0-inf) / half-life / clearance / Vd / Cmax / Tmax: plasma; for clearance: read-out: CLp; for Vd: read-out: Vdss. How it is done:
Exposures in animals treated with ATX-inhibitors were determined from K2EDTA treated plasma by LC-MS/MS at different time points. 25 µL of plasma was used for a single concentration determination. Concentration/time profiles were analyzed with MS Excel (Microsoft Corporation, Redmond, WA, United States).
For PK experiments for 7, 13, 14, and 15, respectively, animals were treated either iv or po and exposures were determined at different time points after compound administration. Suitable formulations for 13 were, for example, NMP:Tris buffer pH 8.5 (30%/70%) for iv administration with a nominal drug concentration of 1 mg/ml (dose 2 mg/kg) and a suspension in NMP:gelatine/NaCl (10%/90%) for po administration with a nominal drug concentration of 2.5 mg/ml (dose 10 mg/kg). PK parameters in Table 2 were estimated from the concentration time profiles using Phoenix WinNonlin software (Certara, Princeton, NJ, United States).

Converted amounts (≈) assume the structure as drawn.

In the case of `O=C(CCc1ccc(OC(F)(F)F)cc1)N1C[C@@H]2CN(C(=O)c3ccc4[nH]nnc4c3)C[C@H]2C1` [Compound 14, 1-[(3aR,6aR)-5-(1H-benzotriazole-5-carbonyl)-hexahydro-pyrrolo[3,4-c]pyrrol-2-yl]-3-(4-trifluoromethoxy-phenyl)-propan-1-one], on human ATX, the IC50 (usually the concentration that inhibits the measured activity by half) was determined as 6 nM. Moreover, in data set [1], the “Mic CL r” value was determined as 40 µL/m/mg prot. Besides, the solubility – broadly, how much of the substance goes into solution per volume – in the data set “HT-solubility assay” came out at 46 µg/mL (≈ 97.2 µM). Besides, the “Mic CL h” value in data set [2] is 10 µL/m/mg prot. In addition, the pH-dependent lipophilicity (logD) (as a rule, the decadic logarithm of the distribution of all forms, ionised or not, between an organic phase and buffer at a given pH) at 12 h in data set [3] was found to be 2.5. Further, in [4], the GSH adducts entry is recorded as “Neg”. Also, the “Mic CL m” value in data set [5] came out at 27 µL/m/mg prot. Further, the Papp in data set [6] worked out at 2.7 ×10⁻⁶ cm/s. For the same molecule, in the data set “Single dose PK in rats” (iv bolus, 3 mg/kg), the AUC(0-inf) (as a rule, the area under the concentration-time curve extrapolated to infinity) was found to be 1070 ng·h/mL; the half-life – broadly, the time in which the quantity being followed falls by half – was 78 min; the clearance came to 47 mL/min/kg; the Vd is 0.9 L/kg. Further, in “Single dose PK in rats” (oral gavage, 30 mg/kg), the area under the curve AUC(0-inf) turned out to be 660 ng·h/mL; the peak level (Cmax) was 130 ng/mL; the Tmax (as a rule, the time from dosing to the highest level) was 30 min; the half-life was 228 min. The “Oral F” value in the data set “Single dose PK in rats” (oral gavage, 30 mg/kg) is recorded as 6%.

With `O=C(COc1ccc(OC(F)(F)F)cc1)N1C[C@@H]2CN(C(=O)c3ccc4[nH]nnc4c3)C[C@H]2C1` [Compound 12, 1-[(3aS,6aS)-5-(1H-Benzotriazole-5-carbonyl)-hexahydro-pyrrolo[3,4-c]pyrrol-2-yl]-2-(4-trifluoromethoxy-phenoxy)-ethanone], the half-maximal inhibitory concentration (IC50) on human ATX turned out to be 137 nM. Besides, the “Mic CL r” value in [1] was 10/na/10 µL/m/mg prot. Also, in “HT-solubility assay”, the solubility came out at 8 µg/mL (≈ 16.8 µM). Besides, in data set [2], the “Mic CL h” value is reported as 10/na/10 µL/m/mg prot. In data set [3], this molecule gave a log distribution coefficient (logD) at 12 h of 3.2. Besides, the GSH adducts result in data set [4] was “Neg”. In data set [6], the Papp amounted to 1.8 ×10⁻⁶ cm/s.

With `O=C(OCc1cc(Cl)cc(Cl)c1)N1C[C@@H]2CN(C(=O)c3ccc4[nH]nnc4c3)C[C@H]2C1` [Compound 7, (3aS,6aS)-5-(1H-Benzotriazole-5-carbonyl)-hexahydro-pyrrolo [3,4-c]pyrrole-2-carboxylic acid 3,5-dichloro-benzyl ester], the half-maximal inhibitory concentration (IC50) on human ATX came to 4 nM. In data set [1], the “Mic CL r” value is 10 µL/m/mg prot. The molecule also displayed a solubility in the data set “HT-solubility assay” of 9 µg/mL (≈ 19.6 µM). In addition, the “Mic CL h” value in data set [2] was 16 µL/m/mg prot. The molecule further displayed a logD at 12 h in data set [3] of 3.1. Besides, the GSH adducts result in data set [4] is on record as “pos”. The “Mic CL m” value in [5] is given as 17 µL/m/mg prot. In addition, in “Single dose PK in rats” (iv bolus, 3 mg/kg), the total exposure AUC(0-inf) was determined as 2140 ng·h/mL, the half-life is 48 min, the clearance was 23 mL/min/kg and the Vd is 1.3 L/kg. Moreover, in the data set “Single dose PK in rats” (oral gavage, 20 mg/kg), the AUC(0-inf) amounted to 7900 ng·h/mL; the peak concentration (Cmax) – broadly, the highest concentration seen after dosing – amounted to 2500 ng/mL; the Tmax is 15 min; the half-life was 96 min. Besides, in the data set “Single dose PK in rats” (oral gavage, 20 mg/kg), the “Oral F” value is given as 54%.

On to `CS(=O)(=O)c1cc(Cl)cc(COC(=O)N2C[C@@H]3CN(C(=O)c4ccc5[nH]nnc5c4)C[C@H]3C2)c1` [Compound 15, (3aS,6aS)-5-(1H-Benzotriazole-5-carbonyl)-hexahydro-pyrrolo[3,4-c]pyrrole-2-carboxylic acid 3-chloro-5-methanesulfonyl-benzyl ester], for which the IC50 at human ATX came out at 8 nM. This molecule also had a solubility in “HT-solubility assay” of 190 µg/mL (≈ 377 µM). For the same molecule, the “Mic CL h” value in data set [2] is listed as 10/10/na µL/m/mg prot. Moreover, the logD at 12 h in data set [3] amounted to 2. For the same molecule, in data set [4], the GSH adducts entry is on record as “Neg”. Also, the “Mic CL m” value in data set [5] is 10/10/na µL/m/mg prot. The Papp in data set [6] stood at 0.4 ×10⁻⁶ cm/s. In “Single dose PK in rats” (iv bolus, 3 mg/kg), the AUC(0-inf) worked out at 321 ng·h/mL, the half-life is 21 min, the clearance was found to be 156 mL/min/kg and the Vd was determined as 1.7 L/kg. Further, in “Single dose PK in rats” (oral gavage, 30 mg/kg), the AUC(0-inf) was 30 ng·h/mL, the peak level (Cmax) was 18 ng/mL, the Tmax was found to be 15 min and the half-life was 114 min. The “Oral F” value in “Single dose PK in rats” (oral gavage, 30 mg/kg) is on record as 1.1%.

These data come from PMC8807399, “Synthesis, Characterization, and in vivo Evaluation of a Novel Potent Autotaxin-Inhibitor” (Frontiers in Pharmacology, 2022).
